Read-outs that look alike come from different tables or passages of the source.
Tests used:
Assay type in all cases: cell-based, mouse
B16-Ova cells = experiment: In vitro cross presentation assay: drug-treated B16-Ova cells, BMDC and OT-1 CD8+ T-cells, IFN-γ+ T-cells by flow cytometry; design: reduction of the percentage of IFNg+ T-cells by siRNA knockdown of calreticulin / reduction of T-cell IFN-γ responses / frequency of IFN-γ+ T-cells: concentration or dose not given beside the values
Method: B16-Ova or MC-38 Ova cells were treated with various doses of chemotherapeutic drugs for 24 h followed by extensive washing in IMDM (10% FBS, P/S). Subsequently 1×10^6 treated cells were co-cultured with 2.5×10^5 BMDC per well of a 24-well plate for each condition tested. After 24 hours of co-culture, supernatants were removed from each well and the BMDC washed 2-3 times in T-cell media (RPMI containing 10% FBS, 20 mM HEPES, 1 mM sodium pyruvate, 55 uM b-mercaptoethanol, 2 mM L-glutamine, nonessential amino acids and antibiotics). CD8+OT-I T-cells isolated from spleens of OT-I mice were then co-cultured with the BMDC at 125,000 T-cells per well to achieve an effector to target ratio of 0.5. Where indicated, BMDC and/or T-cells were also exposed to chemotherapy drugs. After a 12-15 h incubation, IFN-g producing T-cells were identified and quantified by intra-cellular cytokine staining and flow cytometry using a BD LSR II or Fortessa flow cytometer. Cells were first gated for CD3 expression, then re-gated for CD8 and IFNg expression.
An experimental system was developed to assess dendritic cell-mediated T-cell priming using the B16-Ova cells, in combination with primary bone-marrow derived dendritic cells (BMDC) and OT-I CD8+ T-cells expressing a TCR transgene that specifically recognizes the Ova-derived peptide […] (SEQ ID NO:1) in the context of H2-Kb (OT-1) (Clarke, et al., Immunol Cell Biol., 78(2):110-7 (2000); Hogquist, et al., Cell, 76(1):17-27 (1994)). […] The treated B16-Ova cells/BMDC co-culture was then incubated with purified CD8+ T-cells obtained from the spleens of OT-1 mice, and the appearance of IFNg+CD8 T-cells was measured 12-15 hours later by intracellular staining and subsequent quantification using flow cytometry.

[1] = tested on: B16F10 melanoma tumor cell line; experiment: Cell death by AnnexinV/DAPI staining 48 hours after drug treatment; settings: for cell death by DAPI and Annexin V staining: at the concentrations used
Method: For assessment of cell death, floating and attached cells were harvested after 48 hours of treatment with the indicated chemotherapeutic drugs. Attached cells were detached using 5 mM EDTA in PBS. The recovered cells were centrifuged at 250×g for 5 minutes, washed once in PBS containing 0.9 mM Ca2+ and 0.5 mM Mg2+ and then stained with AnnV-FITC for 15 minutes in Annexin binding buffer at room temperature according to the manufacturer's protocol (Biolegend). Cells were co-stained with DAPI at a final concentration of 1 μg/ml for 2 minutes in Annexin binding buffer, brought to a final volume of 500 ul using PBS containing 0.9 mM Ca2^+ and 0.5 mM Mg2^+ and analyzed by flow cytometry.
To identify how DNA-damaging chemotherapy could be optimally used to enhance anti-tumor immune function, cytotoxicity assays were performed using the B16F10 melanoma tumor cell line expressing ovalbumin (B16-Ova). Cells were treated with clinically used chemotherapeutic agents followed by assaying for cell death by DAPI and Annexin V staining 48 hours later.

[2] = Cell viability (survival) assay with CellTiter-Glo, 48 hours; settings: mouse, 48 hours, normalized to DMSO-treated control cells
Method: (§1) For assays of survival, 15,000 cells were plated per well in a 96-well plate in 100 μl media with 5 replicates per condition. Wells along the four edges of the plate were not used. Following cell attachment, the indicated drugs were added in an equal volume of media, and incubated for an additional 48 hours. The media was then removed and replaced with 100 ul of fresh media at room temperature. Following a 30 minute incubation at room temperature, 50 μl of CellTiter-Glo reagent was added, followed by 2 minutes of gentle mixing. The plate was incubated at room temperature for an additional 10 minutes. 100 μl of supernatant was transferred to a 96-well white opaque plate and luminescence was read on a Tecan microplate reader. Values were normalized to those of DMSO-treated control cells.

[3] = tested on: B16F10 melanoma tumor cell line; experiment: as above; settings: for Cell viability (%) MEAN: 48 hours, normalized to DMSO-treated control cells
Method: as §1

[4] = co-treatment of B16-Ova cells with etoposide
[5] = co-treatment of B16-Ova cells with mitoxantrone
[6] = Mus musculus, B16-F10, 48 h, read-out: AnnV+DAPI+ (%) Mean
[7] = Mus musculus, B16-F10, 48 h, read-out: AnnV+DAPI− (%) Mean
[8] = Mus musculus, B16-F10, 48 h, read-out: AnnV−DAPI+ (%) Mean
[9] = Mus musculus, B16-F10, 48 h, read-out: AnnV−DAPI− (%) Mean

Molecule: Z-VAD
- reduction of T-cell IFN-γ responses / frequency of IFN-γ+ T-cells (B16-Ova cells; [4]): ~12%
- reduction of T-cell IFN-γ responses / frequency of IFN-γ+ T-cells (B16-Ova cells; [5]): no effect

Molecule: O=P1(N(CCCl)CCCl)NCCCO1 (stereo not drawn) [CPM, cyclophosphamide]
- cell death by DAPI and Annexin V staining ([1]; 48 hours): did not induce substantial amounts of cell death
- cytotoxicity at 40 µM [1, 6]: 7.7%
- cytotoxicity at 200 µM [1, 6]: 11%
- cytotoxicity at 40 µM [1, 7]: 1.44%
- cytotoxicity at 200 µM [1, 7]: 1.09%
- cytotoxicity at 40 µM [1, 8]: 0.82%
- cytotoxicity at 200 µM [1, 8]: 0.88%
- viability at 40 µM [1, 9]: 90%
- viability at 200 µM [1, 9]: 87%
- viability at 48 h, 40 µM ([2]; 40 uM): 98.5%
- viability at 48 h, 200 µM ([2]; 200 uM): 101%

Molecule: Cc1ccc(-c2ccc3c(ccc4sc5c(c43)NC[C@@H](C)NC5=O)n2)cn1 [PF-3644022]
- BMDC-mediated T-cell priming (B16-Ova cells; [4]): enhances BMDC-mediated T-cell priming

Molecule: CC[C@@]1(O)C(=O)OCc2c1cc1n(c2=O)Cc2cc3ccccc3nc2-1 [CPT, camptothecin]
- cell death by DAPI and Annexin V staining ([1]; 48 hours): did not induce substantial amounts of cell death
- cytotoxicity at 0.05 µM ([1]; Mus musculus, B16-F10, 50 nM, 48 hours, read-out: AnnV+DAPI+ (%) Mean): 7.03%
- cytotoxicity at 0.05 µM ([1]; Mus musculus, B16-F10, 50 nM, 48 hours, read-out: AnnV+DAPI− (%) Mean): 1.26%
- cytotoxicity at 0.05 µM ([1]; Mus musculus, B16-F10, 50 nM, 48 hours, read-out: AnnV−DAPI+ (%) Mean): 1.35%
- viability at 0.05 µM ([1]; Mus musculus, B16-F10, 50 nM, 48 hours, read-out: AnnV−DAPI− (%) Mean): 90.4%
- cytotoxicity at 0.25 µM ([1]; Mus musculus, B16-F10, 250 nM, 48 hours, read-out: AnnV+DAPI+ (%) Mean): 4.71%
- cytotoxicity at 0.25 µM ([1]; Mus musculus, B16-F10, 250 nM, 48 hours, read-out: AnnV+DAPI− (%) Mean): 4.35%
- cytotoxicity at 0.25 µM ([1]; Mus musculus, B16-F10, 250 nM, 48 hours, read-out: AnnV−DAPI+ (%) Mean): 0.58%
- viability at 0.25 µM ([1]; Mus musculus, B16-F10, 250 nM, 48 hours, read-out: AnnV−DAPI− (%) Mean): 90.3%
- viability at 48 h, 0.25 µM ([2]; B16F10 melanoma tumor cells, 0.25 uM): 77.6%
- viability at 48 h, 0.05 uM ([2]; B16F10 melanoma tumor cells, .05 uM): 91.1%

Molecule: O=C1[O][Pt]2([NH][C@@H]3CCCC[C@H]3[NH]2)[O]C1=O [Oxal, oxaliplatin]
- AnnV+DAPI+ (%) Mean ([1]; 10 uM, 48 hours): 1.73%
- AnnV+DAPI− (%) Mean ([1]; 10 uM, 48 hours): 2.65%
- AnnV−DAPI+ (%) Mean ([1]; 10 uM, 48 hours): 1.11%
- AnnV−DAPI− (%) Mean ([1]; 10 uM, 48 hours): 94.50%
- AnnV+DAPI+ (%) Mean ([1]; 50 uM, 48 hours): 4.25%
- AnnV+DAPI− (%) Mean ([1]; 50 uM, 48 hours): 4.23%
- AnnV−DAPI+ (%) Mean ([1]; 50 uM, 48 hours): 1.09%
- AnnV−DAPI− (%) Mean ([1]; 50 uM, 48 hours): 90.45%
- cell death by DAPI and Annexin V staining ([1]; 48 hours): did not induce substantial amounts of cell death
- Cell viability (%) MEAN ([3]; 10 uM): 45.09%
- Cell viability (%) MEAN ([3]; 50 uM): 44.21%
- growth arrest ([3]; at the concentrations used): caused some degree of growth arrest

Molecule: CN1C(=O)C(Cc2c[nH]c3ccccc23)NC1=S (stereo not drawn) [necrostatin-1]
- ability of drug-treated B16-Ova cells co-cultured with BMDCs to induce IFN-g in T-cells (B16-Ova cells; co-treatment with etoposide or mitoxantrone): inhibited the ability of both etoposide and mitoxantrone-treated B16-Ova cells

Molecule: O=c1[nH]cc(F)c(=O)[nH]1 [5-FU, 5-fluorouracil]
- cell death by DAPI and Annexin V staining ([1]; 48 hours): caused varying extents of apoptotic and non-apoptotic cell death
- cytotoxicity at 10 µM ([1]; Mus musculus, B16-F10, 10 uM, 48 hours, read-out: AnnV+DAPI+ (%) Mean): 5.29%
- cytotoxicity at 10 µM ([1]; Mus musculus, B16-F10, 10 uM, 48 hours, read-out: AnnV+DAPI− (%) Mean): 9.5%
- cytotoxicity at 10 µM ([1]; Mus musculus, B16-F10, 10 uM, 48 hours, read-out: AnnV−DAPI+ (%) Mean): 1.23%
- viability at 10 µM ([1]; Mus musculus, B16-F10, 10 uM, 48 hours, read-out: AnnV−DAPI− (%) Mean): 84%
- cytotoxicity at 50 µM ([1]; Mus musculus, B16-F10, 50 uM, 48 hours, read-out: AnnV+DAPI+ (%) Mean): 6.78%
- cytotoxicity at 50 µM ([1]; Mus musculus, B16-F10, 50 uM, 48 hours, read-out: AnnV+DAPI− (%) Mean): 28.1%
- cytotoxicity at 50 µM ([1]; Mus musculus, B16-F10, 50 uM, 48 hours, read-out: AnnV−DAPI+ (%) Mean): 1.33%
- viability at 50 µM ([1]; Mus musculus, B16-F10, 50 uM, 48 hours, read-out: AnnV−DAPI− (%) Mean): 63.9%
- viability at 48 h, 10 µM ([2]; B16F10 melanoma tumor cells, 10 uM): 49%
- viability at 48 h, 50 µM ([2]; B16F10 melanoma tumor cells, 50 uM): 42.8%

Molecule: N.N.[Cl][Pt][Cl] [Cis, cisplatin]
- AnnV+DAPI+ (%) Mean ([1]; 10 uM, 48 hours): 2.76%
- AnnV+DAPI− (%) Mean ([1]; 10 uM, 48 hours): 3.68%
- AnnV−DAPI+ (%) Mean ([1]; 10 uM, 48 hours): 0.32%
- AnnV−DAPI− (%) Mean ([1]; 10 uM, 48 hours): 93.25%
- AnnV+DAPI+ (%) Mean ([1]; 50 uM, 48 hours): 18.75%
- AnnV+DAPI− (%) Mean ([1]; 50 uM, 48 hours): 46.80%
- AnnV−DAPI+ (%) Mean ([1]; 50 uM, 48 hours): 2.96%
- AnnV−DAPI− (%) Mean ([1]; 50 uM, 48 hours): 31.55%
- cell death by DAPI and Annexin V staining ([1]; 48 hours): caused varying extents of apoptotic and non-apoptotic cell death

Molecule: CC(C)(C)c1ccc(S(=O)(=O)/C=C/C#N)cc1 [Bay11-7085]
- BMDC-mediated T-cell priming (B16-Ova cells; [4]): inhibits BMDC-mediated T-cell priming
- reduction of T-cell IFN-γ responses / frequency of IFN-γ+ T-cells (B16-Ova cells; [4]): > 90%
- reduction of T-cell IFN-γ responses / frequency of IFN-γ+ T-cells (B16-Ova cells; [5]): > 50%

Molecule: Oc1ccc(-c2nc(-c3ccncc3)c(-c3ccc(F)cc3)[nH]2)cc1 [SB202190]
- reduction of T-cell IFN-γ responses / frequency of IFN-γ+ T-cells (B16-Ova cells; [4]): ~22%
- reduction of T-cell IFN-γ responses / frequency of IFN-γ+ T-cells (B16-Ova cells; [5]): nearly abrogated

— patent US20210154281A1, “CELL-BASED CANCER VACCINES AND CANCER THERAPIES” (Massachusetts Institute of Technology, priority 2019, published 2021)
